Values joined by “and” are separate entries in the source; they are usually repeats but may differ in a detail not shown here. Identical values can stand only once. Active and inactive are the calls of the source. No cut-off for these calls is given here.
Experiments:
Mus musculus [1] = test: Anticonvulsant activity in Kunming mouse assessed as MES-induced hind limb extension at 100 mg/kg, ip administered 3 hrs before MES stimulation; assay type: functional, organism-based
Mus musculus [2] = test: Anticonvulsant activity in Kunming mouse assessed as MES-induced hind limb extension at 100 mg/kg, ip administered 0. 5 to 4 hrs before MES stimulation relative to control; assay type: functional
Mus musculus [3] = test: Anticonvulsant activity in Kunming mouse assessed as MES-induced hind limb extension at 100 mg/kg, ip administered 0. 5 to 2 hrs before MES stimulation; assay type: functional, organism-based
[4] = Neurotoxicity against Kunming mouse assessed as time remained in rod at 100 mg/kg, ip administered 0.5 to 2 hrs by rotarod test; assay type: toxicity, organism-based; settings: in vivo
Homo sapiens [5] = organism: Homo sapiens; test: Inhibition of human LDH1 at 0.5 mM using sodium pyruvate as substrate by UV-VIS spectrophotometry method relative to control
Homo sapiens [6] = organism: Homo sapiens; test: Inhibition of human LDH5 at 0.5 mM using sodium pyruvate as substrate by UV-VIS spectrophotometry method relative to control
[7] = Drug metabolism in Sprague-Dawley rat assessed as retention time by HPLC/MS analysis; assay type: ADME
Mus musculus [8] = test: Anticonvulsant activity in ip dosed Kunming mouse assessed as MES-induced hind limb extension administered 0.5 hrs before MES stimulation; assay type: functional
Mus musculus [9] = test: Anticonvulsant activity in ip dosed Kunming mouse assessed as reduction in ScPTZ-induced seizure administered 0.5 hrs before ScPTZ stimulation; assay type: functional
[10] = (§1) Protective index, ratio of TD50 for neurotoxicity against ip dosed Kunming mouse assessed as time remained in rod measured at 0.5 hrs by rotarod test to ED50 for […] activity in ip dosed Kunming mouse assessed as reduction in formalin-induced paw licking administered 0.5 hrs before formalin stimulation; assay type: toxicity, organism-based; settings: in vivo, read-out: PI
Mus musculus [11] = test: […] activity in ip dosed Kunming mouse assessed as reduction in formalin-induced paw licking administered 0.5 hrs before formalin stimulation; assay type: functional
[12] = Neurotoxicity against ip dosed Kunming mouse assessed as time remained in rod measured at 0.5 hrs by rotarod test; assay type: toxicity, organism-based; settings: in vivo
[13] = as §1, with “ScPTZ-induced seizure” for “formalin-induced paw licking”, “ScPTZ” for “formalin”; assay type: toxicity, organism-based; settings: in vivo, read-out: PI
Mus musculus [14] = test: Anticonvulsant activity in Kunming mouse assessed as MES-induced hind limb extension at 50 mg/kg, ip administered 0.5 to 4 hrs before MES stimulation relative to control; assay type: functional
[15] = as §1, with “Sc3-MP-induced seizure” for “formalin-induced paw licking”, “Sc3-MP” for “formalin”; assay type: toxicity, organism-based; settings: in vivo, read-out: PI
Mus musculus [16] = test: Anticonvulsant activity in Kunming mouse assessed as reduction in ScPTZ-induced seizure at 100 mg/kg, ip administered 0.25 and 1 hrs before ScPTZ stimulation relative to control; assay type: functional; design: scale not given: the % may be the effect or the level left
Mus musculus [17] = test: Anticonvulsant activity in Kunming mouse assessed as reduction in ScPTZ-induced clonic seizure at 100 mg/kg, ip administered 0.5 hrs before ScPTZ stimulation relative to control; assay type: functional; design: scale not given: the % may be the effect or the level left
Mus musculus [18] = test: Anticonvulsant activity in Kunming mouse assessed as reduction in Sc3-MP-induced seizure ip dosed measured at 0.5 hrs before Sc3-MP stimulation; assay type: functional
Mus musculus [19] = test: Anticonvulsant activity in Kunming mouse assessed as reduction in ScPTZ-induced seizure at 100 mg/kg, ip administered 0.25 to 2 hrs before ScPTZ stimulation relative to control; assay type: functional; design: scale not given: the % may be the effect or the level left
Mus musculus [20] = test: Anticonvulsant activity in Kunming mouse assessed as reduction in ScPTZ-induced seizure at 300 mg/kg, ip administered 0.25 to 2 hrs before ScPTZ stimulation relative to control; assay type: functional; design: scale not given: the % may be the effect or the level left
Mus musculus [21] = test: Anticonvulsant activity in Kunming mouse assessed as reduction in ScPTZ-induced tonic seizure rate at 300 mg/kg, ip administered 0.5 hrs before ScPTZ stimulation relative to control; assay type: functional; design: scale not given: the % may be the effect or the level left
[22] = Protective index, ratio of TD50 for neurotoxicity against ip dosed Kunming mouse assessed as time remained in rod measured at 0.5 hrs by rotarod test to ED50 for anticonvulsant activity in ip dosed Kunming mouse assessed as MES-induced hind limb extension administered 0.5 hrs; assay type: toxicity, organism-based; settings: in vivo, read-out: PI
Mus musculus [23] = test: Anticonvulsant activity in Kunming mouse assessed as reduction in Sc3-MP-induced clonic seizure rate at 300 mg/kg, ip administered 0.5 hrs before Sc3-MP stimulation relative to control; assay type: functional; design: scale not given: the % may be the effect or the level left
Mus musculus [24] = test: Anticonvulsant activity in Kunming mouse assessed as reduction in ScPTZ-induced tonic seizure rate at 100 mg/kg, ip administered 0.5 hrs before ScPTZ stimulation relative to control; assay type: functional; design: scale not given: the % may be the effect or the level left
Mus musculus [25] = test: Anticonvulsant activity in Kunming mouse assessed as reduction in Sc3-MP-induced tonic seizure rate at 300 mg/kg, ip administered 0.5 hrs before Sc3-MP stimulation relative to control; assay type: functional; design: scale not given: the % may be the effect or the level left
Mus musculus [26] = test: Anticonvulsant activity in Kunming mouse assessed as reduction in ScPTZ-induced clonic seizure at 300 mg/kg, ip administered 0.5 hrs before ScPTZ stimulation relative to control; assay type: functional; design: scale not given: the % may be the effect or the level left
Mus musculus [27] = test: Anticonvulsant activity in Kunming mouse assessed as reduction in ScPTZ-induced mortality rate at 300 mg/kg, ip administered 0.5 hrs before ScPTZ stimulation relative to control; assay type: functional; design: scale not given: the % may be the effect or the level left
Mus musculus [28] = test: Anticonvulsant activity in Kunming mouse assessed as MES-induced hind limb extension at 50 mg/kg, ip administered 0.5 and 2 hrs before MES stimulation relative to control; assay type: functional

COc1cc(OC)c(OC)cc1CCCOC(=O)/C=C/c1cc(OC)c(OC)c(OC)c1
Activity (Mus musculus [1]): Active
Activity (Mus musculus [2]): 25 - 100%
Activity (Mus musculus [3]): Active
Activity [4]: Non-Toxic
inhibition (Homo sapiens [5]): < 5%
inhibition (Homo sapiens [6]): 9%

COc1cc(OC)c(OC)cc1/C=C\C(=O)O
Retention_time [7]: 78.7 min

COc1cc(/C=C/C(=O)O)cc(OC)c1OC [SINAPIC ACID METHYL ETHER]
Activity (Mus musculus [3]): Active
Activity [4]: Non-Toxic

COC[C@@H](NC(C)=O)C(=O)NCc1ccccc1 [LACOSAMIDE]
ED50 (Mus musculus [8]): 37.6 µmol/kg and 9.4 mg/kg
ED50 (Mus musculus [9]): > 500 mg/kg and > 2000 µmol/kg
selectivity ratio at 0.5 h [10]: 2.2
ED50 (Mus musculus [11]): 15 mg/kg and 0.1 µmol/kg
TD50 at 0.5 h [12]: 135 µmol/kg
selectivity ratio at 0.5 h [13]: < 0.1

COc1cc(OC)c(OC)cc1/C=C/COC(=O)/C=C/c1c(OC)c(OC)cc(OC)c1OC
Activity (Mus musculus [14]): 50%
selectivity ratio at 0.5 h [15]: 5
Activity (Mus musculus [2]): 25 - 100%
Activity (Mus musculus [3]): Active
ED50 (Mus musculus [8]): 122 µmol/kg and 57.9 mg/kg
Activity (Mus musculus [16]): 75%
Activity (Mus musculus [17]): 100%
ED50 (Mus musculus [9]): 149 mg/kg and 314 µmol/kg
ED50 (Mus musculus [18]): > 300 mg/kg and > 632 µmol/kg
Activity (Mus musculus [19]): 25%
selectivity ratio at 0.5 h [10]: 19.7
Activity [4]: Non-Toxic
inhibition (Homo sapiens [5]): Active
Activity (Mus musculus [20]): 50%
Activity (Mus musculus [21]): 25%
selectivity ratio at 0.5 h [22]: > 17.3
ED50 (Mus musculus [11]): 50.8 mg/kg and 107 µmol/kg
TD50 at 0.5 h [12]: > 2110 µmol/kg and > 1000 mg/kg
Activity (Mus musculus [23]): 100%
inhibition (Homo sapiens [6]): Active
Activity (Mus musculus [24]): 25%
selectivity ratio at 0.5 h [13]: 6.7
Activity (Mus musculus [25]): 75%
Activity (Mus musculus [26]): 100%

COc1cc(OC)c(OC)cc1CCCNC(=O)/C=C/c1cc(OC)c(OC)c(OC)c1
Activity (Mus musculus [2]): 25 - 100%
Activity (Mus musculus [3]): Active
Activity [4]: Non-Toxic
inhibition (Homo sapiens [5]): < 5%
inhibition (Homo sapiens [6]): 9%

COc1cc(OC)c(OC)cc1/C=C/COC(=O)/C=C/c1ccccc1C(F)(F)F
selectivity ratio at 0.5 h [15]: 3.3
Activity (Mus musculus [1]): Active
Activity (Mus musculus [2]): 25 - 100%
Activity (Mus musculus [3]): Active
ED50 (Mus musculus [8]): 85.7 mg/kg and 203 µmol/kg
Activity (Mus musculus [17]): 100%
ED50 (Mus musculus [9]): > 200 mg/kg and > 474 µmol/kg
ED50 (Mus musculus [18]): > 300 mg/kg and > 710 µmol/kg
Activity (Mus musculus [19]): inactive
selectivity ratio at 0.5 h [10]: > 8.1
Activity [4]: Non-Toxic
inhibition (Homo sapiens [5]): < 5%
Activity (Mus musculus [20]): 50%
Activity (Mus musculus [21]): 50%
selectivity ratio at 0.5 h [22]: > 11.7
ED50 (Mus musculus [11]): 123 mg/kg and 291 µmol/kg
Activity (Mus musculus [27]): 0%
TD50 at 0.5 h [12]: > 2370 µmol/kg and > 1000 mg/kg
Activity (Mus musculus [23]): 100%
inhibition (Homo sapiens [6]): < 9%
Activity (Mus musculus [24]): 100%
selectivity ratio at 0.5 h [13]: 5
Activity (Mus musculus [25]): 75%
Activity (Mus musculus [26]): 100%
Activity (Mus musculus [28]): inactive

COc1cc(OC)c(OC)cc1/C=C/COC(=O)/C=C/c1c(OC)c(OC)c(OC)c(OC)c1OC
Activity (Mus musculus [2]): inactive
Activity (Mus musculus [3]): Active
Activity [4]: Non-Toxic
inhibition (Homo sapiens [5]): inactive
inhibition (Homo sapiens [6]): inactive

COc1cc(OC)c(OC)cc1/C=C/COC(=O)/C=C/c1cccc(C(F)(F)F)c1
Activity (Mus musculus [2]): inactive
Activity (Mus musculus [3]): Active
Activity [4]: Non-Toxic
inhibition (Homo sapiens [5]): < 5%
inhibition (Homo sapiens [6]): < 9%

COc1cc(OC)c(OC)cc1/C=C/C(=O)O
Retention_time [7]: 79.8 min

COc1cc(OC)c(OC)cc1/C=C/COC(=O)/C=C/c1ccc(C(F)(F)F)cc1
Activity (Mus musculus [2]): 25 - 100%
Activity (Mus musculus [3]): Active
Activity [4]: Non-Toxic
inhibition (Homo sapiens [5]): < 5%
inhibition (Homo sapiens [6]): < 9%

COc1cc(OC)c(OC)cc1/C=C/C(=O)O[C@@H]1O[C@H](C(=O)O)[C@@H](O)[C@H](O)[C@H]1O
Retention_time [7]: 50.1 min

COc1cc(OC)c(OC)cc1/C=C/COC(=O)/C=C/c1cccc(OC)c1OC
Activity (Mus musculus [1]): Active
Activity (Mus musculus [2]): 25 - 100%
Activity (Mus musculus [3]): Active
Activity [4]: Non-Toxic
inhibition (Homo sapiens [5]): inactive
inhibition (Homo sapiens [6]): inactive

From ChEMBL document CHEMBL4311969, “Polygala tenuifolia-Acori tatarinowii herbal pair as an inspiration for substituted cinnamic α-asaronol esters: Design, synthesis, anticonvulsant activity, and inhibition of lactate dehydrogenase study” (Eur J Med Chem, 2019)
